The conditions of series [1]: 101 kPa, Liquid; for speed of sound: Sing-around technique in a fixed-path interferometer.
Series [2] is described as follows: xn = mol fraction of the nth substance listed. Conditions: 101 kPa, Liquid, x1 = 1; for speed of sound: Sing-around technique in a fixed-path interferometer.

From the NIST ThermoML archive (doi:10.1016/j.jct.2007.05.016) come the findings set out here.

Where “and” joins values, the source holds several entries; their conditions need not be identical. Equal values may be shown once. ± gives the expanded uncertainty stated by the source.

Broadly, the mass density is the mass of a sample divided by its volume. A word on the viscosity: it is the internal friction of a fluid under shear. Broadly, the speed of sound is how fast a sound wave travels through the sample.

Consider `CCCCO` [butan-1-ol], for which, in series [1] (298.15 K), the mass density amounted to 805.907 ± 0.77 kg/m3; the viscosity came out at 2.573 ± 0.032 mPa·s; the speed of sound is 1240.5 ± 1.2 m/s and 1240.4 ± 1.2 m/s. In series [1] (303.15 K), the mass density is reported as 803.155 ± 0.78 kg/m3 and the speed of sound was determined as 1226.5 ± 1.2 m/s. For the same molecule, in series [1] (308.15 K), the mass density turned out to be 799.249 ± 0.78 kg/m3 and the speed of sound is reported as 1209.8 ± 1.2 m/s.

For the molecule `CCCCO` [butan-1-ol] + CCCCCC, in series [2] (298.15 K), the speed of sound is listed as 1240.5 ± 1.2 m/s, the mass density was determined as 805.907 ± 0.77 kg/m3 and the viscosity was determined as 2.573 ± 0.032 mPa·s. Also, in series [2] (303.15 K), the speed of sound was determined as 1226.5 ± 1.2 m/s and the mass density is listed as 803.155 ± 0.78 kg/m3. In series [2] (308.15 K), the speed of sound came to 1209.8 ± 1.2 m/s and the mass density is 799.249 ± 0.78 kg/m3.

Turning to `CCCCO` [butan-1-ol] + CCCCCCCC, in series [2] (298.15 K), the speed of sound was 1240.4 ± 1.2 m/s, the mass density is 805.907 ± 0.77 kg/m3 and the viscosity is listed as 2.573 ± 0.032 mPa·s. In series [2] (303.15 K), the speed of sound stood at 1226.5 ± 1.2 m/s and the mass density is 803.155 ± 0.78 kg/m3. For the same molecule, in series [2] (308.15 K), the speed of sound was found to be 1209.8 ± 1.2 m/s and the mass density came out at 799.249 ± 0.78 kg/m3.

Regarding `CCCCO` [butan-1-ol] + CCCCCCCCCC, the results for the speed of sound in series [2] (298.15 K), in series [2] (303.15 K) and in series [2] (308.15 K) were 1240.5 ± 1.2 m/s, 1226.5 ± 1.2 m/s and 1209.8 ± 1.2 m/s, respectively. For the same molecule, the mass density in series [2] (298.15 K) amounted to 805.907 ± 0.77 kg/m3; in series [2] (303.15 K) it was 803.155 ± 0.78 kg/m3; in series [2] (308.15 K), 799.249 ± 0.78 kg/m3. Further, in series [2] (298.15 K), the viscosity worked out at 2.573 ± 0.032 mPa·s.

`CCCCCCCCCC` [decane]: the mass density in series [1] (298.15 K) is recorded as 726.806 ± 0.93 kg/m3; in series [1] (303.15 K), 723.042 ± 0.94 kg/m3; in series [1] (308.15 K), 719.23 ± 0.95 kg/m3. In addition, the viscosity in series [1] (298.15 K) is reported as 0.852 ± 0.012 mPa·s. Moreover, the values for the speed of sound in series [1] (298.15 K), in series [1] (303.15 K) and in series [1] (308.15 K) were 1234.8 ± 1.2 m/s, 1215.2 ± 1.2 m/s and 1195.6 ± 1.2 m/s, respectively.

Turning to `CCCCCC` [hexane], in series [1] (298.15 K), the mass density is listed as 655.072 ± 1.1 kg/m3, the viscosity is reported as 0.313 ± 0.008 mPa·s and the speed of sound came out at 1077.8 ± 1.2 m/s. In addition, in series [1] (303.15 K), the mass density is 650.369 ± 1.1 kg/m3 and the speed of sound is reported as 1055.2 ± 1.1 m/s. In series [1] (308.15 K), the mass density came out at 645.767 ± 1.1 kg/m3 and the speed of sound stood at 1032.9 ± 1.1 m/s.

For the molecule `CCCCCCCC` [octane], in series [1] (298.15 K), the mass density is on record as 698.58 ± 0.99 kg/m3, the viscosity is recorded as 0.518 ± 0.009 mPa·s and the speed of sound is listed as 1172.7 ± 1.2 m/s. Further, in series [1] (303.15 K), the mass density was found to be 694.497 ± 1 kg/m3 and the speed of sound turned out to be 1152.1 ± 1.2 m/s. Also, in series [1] (308.15 K), the mass density was 690.416 ± 1 kg/m3 and the speed of sound was determined as 1131.7 ± 1.2 m/s.
